Measurements: publication PMC8955975, “Pyrazolo[4,3-c]pyridine Sulfonamides as Carbonic Anhydrase Inhibitors: Synthesis, Biological and In Silico Studies” (Pharmaceuticals, 2022)
Values joined by “and” are separate entries in the source; they are usually repeats but may differ in a detail not shown here. Equal entries are not always repeated.

Legend:
β-CA from E. coli = β-CA from E. coli (Escherichia coli, UniProt P61517); assay: stopped-flow CO2 hydrase assay, E. coli β-CA; format: biochemical
Chain of β-CA from E. coli (P61517 whole entry): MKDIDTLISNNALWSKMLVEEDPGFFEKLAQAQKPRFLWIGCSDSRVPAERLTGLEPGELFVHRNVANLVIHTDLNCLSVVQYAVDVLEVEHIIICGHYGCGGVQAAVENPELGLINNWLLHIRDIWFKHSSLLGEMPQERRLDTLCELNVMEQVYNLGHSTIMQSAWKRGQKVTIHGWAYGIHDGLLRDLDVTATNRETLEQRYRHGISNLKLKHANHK

[1] = biological target: γ-CA from Porphyromonas gingivalis (PgiCAγ) (Porphyromonas gingivalis, UniProt Q7MV79); format: biochemical; conditions: for Ki: stopped-flow CO2 hydrase assay, mean from 3 different assays
Chain of γ-CA from Porphyromonas gingivalis (PgiCAγ) (Q7MV79 entry or part of it): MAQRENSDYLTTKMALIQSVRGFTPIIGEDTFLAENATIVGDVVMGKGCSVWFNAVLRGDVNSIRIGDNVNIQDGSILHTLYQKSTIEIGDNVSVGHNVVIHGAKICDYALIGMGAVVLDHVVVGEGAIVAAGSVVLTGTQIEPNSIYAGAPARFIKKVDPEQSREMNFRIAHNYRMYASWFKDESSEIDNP

γ-CA from E. coli = γ-CA from E. coli (Escherichia coli, UniProt P0A9W9); format: biochemical; conditions: for Ki: stopped-flow CO2 hydrase assay, mean from 3 different assays; for selectivity index (SI) against BpsCAβ: E. coli γ versus BpsCAβ; for selectivity index (SI) against BpsCAγ: E. coli γ versus BpsCAγ; for selectivity index (SI) against E. coli β: E. coli γ versus E. coli β; for selectivity index (SI) against PgiCAγ: E. coli γ versus PgiCAγ
Chain of γ-CA from E. coli (P0A9W9 whole entry): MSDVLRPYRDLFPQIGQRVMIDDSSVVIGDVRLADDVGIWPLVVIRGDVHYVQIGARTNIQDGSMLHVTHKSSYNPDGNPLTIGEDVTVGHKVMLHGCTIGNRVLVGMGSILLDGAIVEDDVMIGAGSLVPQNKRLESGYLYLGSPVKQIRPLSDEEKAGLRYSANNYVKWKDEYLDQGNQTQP

hCA IX = hCA IX (Homo sapiens, UniProt Q16790); assay: stopped-flow CO2 hydrase assay, hCA IX; format: biochemical; conditions: for selectivity index (SI) for hCA I: hCA IX inhibitor, hCA IX versus hCA I; for Ki: stopped-flow CO2 hydrase assay, mean from 3 different assays
BpsCAγ = BpsCAγ (Burkholderia pseudomallei, UniProt Q63SQ4); format: biochemical; conditions: read-out: KI BpsCAγ
Chain of BpsCAγ (Q63SQ4 1-174): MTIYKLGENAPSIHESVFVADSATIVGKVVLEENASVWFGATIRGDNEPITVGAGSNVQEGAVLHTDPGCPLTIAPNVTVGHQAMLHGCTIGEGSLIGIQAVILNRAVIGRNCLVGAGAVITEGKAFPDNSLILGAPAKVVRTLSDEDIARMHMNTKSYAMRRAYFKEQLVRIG

hCA I = hCA I (Homo sapiens, UniProt P00915); assay: stopped-flow CO2 hydrase assay, hCA I; format: biochemical; conditions: for Ki: stopped-flow CO2 hydrase assay, mean from 3 different assays
Chain of hCA I (P00915 whole entry): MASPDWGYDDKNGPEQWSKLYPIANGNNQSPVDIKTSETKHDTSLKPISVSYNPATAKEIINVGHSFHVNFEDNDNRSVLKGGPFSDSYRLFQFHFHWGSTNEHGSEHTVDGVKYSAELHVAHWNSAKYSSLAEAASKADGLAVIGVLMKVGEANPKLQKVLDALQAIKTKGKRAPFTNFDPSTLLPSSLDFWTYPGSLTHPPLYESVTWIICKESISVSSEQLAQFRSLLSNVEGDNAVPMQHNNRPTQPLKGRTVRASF

[2] = biological target: β-CA from Burkholderia pseudomallei (BpsCAβ) (Burkholderia pseudomallei, UniProt Q63Y17); format: biochemical; conditions: for Ki: read-out: KI BpsCAβ
Chain of β-CA from Burkholderia pseudomallei (BpsCAβ) (Q63Y17 1-256): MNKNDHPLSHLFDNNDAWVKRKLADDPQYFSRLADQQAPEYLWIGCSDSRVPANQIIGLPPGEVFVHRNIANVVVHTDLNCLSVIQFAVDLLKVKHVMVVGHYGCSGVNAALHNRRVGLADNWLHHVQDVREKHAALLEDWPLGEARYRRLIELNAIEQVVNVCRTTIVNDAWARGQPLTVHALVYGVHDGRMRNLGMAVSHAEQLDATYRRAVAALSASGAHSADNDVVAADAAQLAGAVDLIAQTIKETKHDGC

[3] = biological target: β-CA from Vibrio cholerae (VhCAβ) (Vibrio cholerae, UniProt A0A086SLX8); assay: biochemical
Chain of β-CA from Vibrio cholerae (VhCAβ) (A0A086SLX8 entry or part of it): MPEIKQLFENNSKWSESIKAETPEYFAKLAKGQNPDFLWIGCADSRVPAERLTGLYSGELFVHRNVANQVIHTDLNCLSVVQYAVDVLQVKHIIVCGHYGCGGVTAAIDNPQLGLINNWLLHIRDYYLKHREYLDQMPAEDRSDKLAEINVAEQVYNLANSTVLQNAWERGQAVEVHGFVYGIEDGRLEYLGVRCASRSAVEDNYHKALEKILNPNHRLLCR

hCA XII = hCA XII (Homo sapiens, UniProt O43570); assay: stopped-flow CO2 hydrase assay, hCA XII; format: biochemical; conditions: for Ki: stopped-flow CO2 hydrase assay, mean from 3 different assays
Chain of hCA XII (O43570 25-354): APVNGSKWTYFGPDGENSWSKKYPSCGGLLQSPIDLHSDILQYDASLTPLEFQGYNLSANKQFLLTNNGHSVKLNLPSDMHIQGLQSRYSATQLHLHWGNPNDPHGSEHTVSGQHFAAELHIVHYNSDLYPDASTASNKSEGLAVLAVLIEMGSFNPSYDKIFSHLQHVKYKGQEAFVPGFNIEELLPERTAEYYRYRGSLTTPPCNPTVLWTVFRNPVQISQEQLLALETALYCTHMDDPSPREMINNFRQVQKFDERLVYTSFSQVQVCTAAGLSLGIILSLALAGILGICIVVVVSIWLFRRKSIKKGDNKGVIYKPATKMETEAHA

hCA II = hCA II (Homo sapiens, UniProt P00918); assay: stopped-flow CO2 hydrase assay, hCA II; format: biochemical; conditions: for Ki: stopped-flow CO2 hydrase assay, mean from 3 different assays, read-out: KI hCAII; for selectivity index (SI) toward hCA I / selectivity index (SI) towards hCA IX / selectivity index (SI) towards hCA XII: hCA II inhibitor; for selectivity index (SI) toward hCA I: hCA II versus hCA I; for selectivity index (SI) towards hCA IX: hCA II versus hCA IX; for selectivity index (SI) towards hCA XII: hCA II versus hCA XII

In the case of COC(=O)c1cn(CCS(N)(=O)=O)cc2c(=O)[nH]nc1-2 [Compound 1a, Methyl 3-oxo-5-(2-sulfamoylethyl)-3,5-dihydro-2H-pyrazolo[4,3-c]pyridine-7-carboxylate], the Ki (β-CA from E. coli) is reported as 862 nM, the melting point is reported as greater than 300 °C and the Ki [1] is reported as 783 nM. The Ki (γ-CA from E. coli) was 61.8 nM, the “selectivity index (SI) for hCA I” value (hCA IX) was 81.8 and the Ki (hCA IX) was 97.9 nM. It also gave a Ki (BpsCAγ) of 913 nM, a Ki (hCA I) of 8010 nM and a Ki [2] of 654 nM. It also gave a Ki [3] of 2330 nM, a Ki (hCA XII) of 282 nM and a Ki (hCA II) of 7330 nM.
In the case of COC(=O)c1cn(-c2ccc(S(N)(=O)=O)cc2)cc2c(=O)[nH]nc1-2 [Compound 1b, Methyl 3-oxo-5-(4-sulfamoylphenyl)-3,5-dihydro-2H-pyrazolo[4,3-c]pyridine-7-carboxylate], the Ki (β-CA from E. coli) is reported as 3460 nM, the melting point is reported as greater than 300 °C and the Ki [1] is reported as 91 nM. For the same compound, the “selectivity index (SI) against BpsCAβ” value (γ-CA from E. coli; E. coli γ-CA inhibitor) was 3.96, the “selectivity index (SI) against BpsCAγ” value (γ-CA from E. coli; E. coli γ-CA inhibitor) was 8.88 and the “selectivity index (SI) against E. coli β” value (γ-CA from E. coli; E. coli γ-CA inhibitor) was 59.8. The “selectivity index (SI) against PgiCAγ” value (γ-CA from E. coli; E. coli γ-CA inhibitor) was 1.59 and 1.57 and 1.5, the “selectivity index (SI) against VhCAβ” value (γ-CA from E. coli; E. coli γ-CA inhibitor, E. coli γ versus VhCAβ) was 14.6 and the Ki (γ-CA from E. coli) was 57.8 nM. For the same compound, the Ki (hCA IX) was 319 nM, the Ki (BpsCAγ) was 513 nM and the “decreased activity against hCA I” value (hCA I; compared with 1f) was ~ 2.7 times. The Ki (hCA I) was 157 nM, the Ki [2] was 229 nM and the Ki [3] was 844 nM. The Ki (hCA XII) was 358 nM and the Ki (hCA II) was 51.4 nM.
With Cc1cc(O)cc(=O)n1CCS(N)(=O)=O [Compound 1i, 2-(4-hydroxy-6-methyl-2-oxopyridin-1(2H)-yl)ethane-1-sulfonamide] the Ki (β-CA from E. coli) was 3050 nM, the melting point was 243 to 245 °C and the Ki [1] was 95.6 nM. For the same compound, the Ki (γ-CA from E. coli) was 92.7 nM, the “selectivity index (SI) for hCA I” value (hCA IX) was 74.9 and the Ki (hCA IX) was 79.6 nM. For the same compound, the Ki (BpsCAγ) was 192 nM, the Ki (hCA I) was 5440 nM and the “selectivity index (SI) against VhCAβ” value [2] was 23.2. For the same compound, the “selectivity index (SI) against the β-CA from E. coli” value [2] was 31.6, the Ki [2] was 96.4 nM and the Ki [3] was 2240 nM. The Ki (hCA XII) was 105 nM and the Ki (hCA II) was 6790 nM.
Work on NS(=O)(=O)CCNC=C1C(=O)Oc2ccccc2C1=O [Compound 1j, 2-(((2,4-dioxochroman-3-ylidene)methyl)amino)ethane-1-sulfonamide] yielded a Ki (β-CA from E. coli) of 94.9 nM, a melting point of 197 to 199 °C and a Ki [1] of 84.3 nM. It also gave a Ki (γ-CA from E. coli) of 67.1 nM, a Ki (hCA IX) of 97.8 nM and a Ki (BpsCAγ) of 625 nM. The Ki (hCA I) was 3860 nM, the Ki [2] was 789 nM and the Ki [3] was 642 nM. For the same compound, the Ki (hCA XII) was 285 nM and the Ki (hCA II) was 5710 nM.
CC(=O)N1CC(Nc2cccc(S(N)(=O)=O)c2)=CC1=O [Compound 1h, 3-((1-Acetyl-5-oxo-2,5-dihydro-1H-pyrrol-3-yl)amino)benzenesulfonamide] showed a Ki (β-CA from E. coli) of 712 nM, a Ki [1] of 90 nM and a Ki (γ-CA from E. coli) of 524 nM. For the same compound, the Ki (hCA IX) was 94.3 nM, the Ki (BpsCAγ) was 833 nM and the Ki (hCA I) was 136 nM. The Ki [2] was 2960 nM, the Ki [3] was 2620 nM and the Ki (hCA XII) was 714 nM. For the same compound, the Ki (hCA II) was 61.7 nM.
With CC12CC(c3ccccc3O1)C(C(N)=O)C(=O)N2CCc1ccc(S(N)(=O)=O)cc1 (stereo not drawn) [Compound 1k, 2-methyl-4-oxo-3-(4-sulfamoylphenethyl)-3,4,5,6-tetrahydro-2H-2,6-methanobenzo[g][1,3]oxazocine-5-carboxamide] the Ki (β-CA from E. coli) was 3860 nM, the melting point was 225 to 227 °C and the Ki [1] was 202 nM. The Ki (γ-CA from E. coli) was 63.5 nM, the Ki (hCA IX) was 421 nM and the Ki (BpsCAγ) was 952 nM. For the same compound, the Ki (hCA I) was 88.3 nM, the Ki [2] was 212 nM and the Ki [3] was 356 nM. For the same compound, the “selectivity index (SI) towards hCA IX” value (hCA XII; hCA XII inhibitor, hCA XII versus hCA IX) was 12.2, the Ki (hCA XII) was 34.5 nM and the “selectivity index (SI) toward hCA I” value (hCA II) was 15.8. For the same compound, the “selectivity index (SI) towards hCA IX” value (hCA II) was 75.25, the “selectivity index (SI) towards hCA XII” value (hCA II) was 6 and the Ki (hCA II) was 5.6 nM.
Work on COC(=O)C1=CN(Cc2ccc(S(N)(=O)=O)cc2)C=C2C(=O)N=NC21 (stereo not drawn) [Compound 1d, 3-oxo-5-(4-sulfamoylbenzyl)-3,5-dihydro-2H-pyrazolo[4,3-c]pyridine-7-carboxylate] yielded a melting point greater than 300 °C.
For CC(=O)N1CC(Nc2ccc(S(N)(=O)=O)cc2)=CC1=O [Compound 1g, 4-((1-Acetyl-5-oxo-2,5-dihydro-1H-pyrrol-3-yl)amino)benzenesulfonamide], the Ki (β-CA from E. coli) was 454 nM, the melting point was 285 to 287 °C and the “selectivity index (SI) towards VhCAβ” value ([1]; PgiCAγ inhibitor, PgiCAγ versus VhCAβ) was 17.4. The Ki [1] was 83.1 nM, the Ki (γ-CA from E. coli) was 205 nM and the Ki (hCA IX) was 294 nM. It also gave a Ki (BpsCAγ) of 97.1 nM, a Ki (hCA I) of 66.8 nM and a Ki [2] of 664 nM. It also gave a Ki [3] of 1450 nM, a Ki (hCA XII) of 509 nM and a Ki (hCA II) of 41.7 nM.
Work on COC(=O)c1cn(-c2cccc(S(N)(=O)=O)c2)cc2c(=O)[nH]nc1-2 [Compound 1c, Methyl 3-oxo-5-(3-sulfamoylphenyl)-3,5-dihydro-2H-pyrazolo[4,3-c]pyridine-7-carboxylate] yielded a Ki (β-CA from E. coli) of 3840 nM, a melting point greater than 300 °C and a Ki [1] of 637 nM. The Ki (γ-CA from E. coli) was 79.1 nM, the Ki (hCA IX) was 590 nM and the Ki (BpsCAγ) was 614 nM. For the same compound, the Ki (hCA I) was 1440 nM, the Ki [2] was 785 nM and the Ki [3] was 913 nM. For the same compound, the Ki (hCA XII) was 143 nM and the Ki (hCA II) was 247 nM.
With COC(=O)c1cn(CC(=O)Nc2ccc(S(N)(=O)=O)cc2)cc2c(=O)[nH]nc1-2 [Compound 1f] the Ki (β-CA from E. coli) was 3650 nM, the melting point was greater than 300 °C and the Ki [1] was 668 nM. The Ki (γ-CA from E. coli) was 66.8 nM, the Ki (hCA IX) was 907 nM and the Ki (BpsCAγ) was 2180 nM. It also gave a Ki (hCA I) of 58.8 nM, a Ki [2] of 236 nM and a Ki [3] of 467 nM. The Ki (hCA XII) was 475 nM, the “selectivity index (SI) toward hCA I” value (hCA II) was 9 and the “selectivity index (SI) towards hCA IX” value (hCA II) was 137.5. The “selectivity index (SI) towards hCA XII” value (hCA II) was 71.9 and the Ki (hCA II) was 6.6 nM.
Work on COC(=O)c1cn(CCc2ccc(S(N)(=O)=O)cc2)cc2c(=O)[nH]nc1-2 [Compound 1e, Methyl 3-oxo-5-(4-sulfamoylphenethyl)-3,5-dihydro-2H-pyrazolo[4,3-c]pyridine-7-carboxylate] yielded a Ki (β-CA from E. coli) of 3140 nM, a melting point greater than 300 °C and a Ki [1] of 96.1 nM. For the same compound, the “selectivity index (SI) against BpsCAβ” value (γ-CA from E. coli; E. coli γ-CA inhibitor) was 3.96, the “selectivity index (SI) against BpsCAγ” value (γ-CA from E. coli; E. coli γ-CA inhibitor) was 8.88 and the “selectivity index (SI) against E. coli β” value (γ-CA from E. coli; E. coli γ-CA inhibitor) was 59.8. For the same compound, the “selectivity index (SI) against PgiCAγ” value (γ-CA from E. coli; E. coli γ-CA inhibitor) was 1.59, the Ki (γ-CA from E. coli) was 58.1 nM and the Ki (hCA IX) was 849 nM. The Ki (BpsCAγ) was 1340 nM, the Ki (hCA I) was 864 nM and the Ki [2] was 683 nM. It also gave a Ki [3] of 840 nM, a Ki (hCA XII) of 397 nM and a Ki (hCA II) of 658 nM.
